Measurements published in the supplement of paper PMC10627819.

Key:
Assay in all cases: fitness (endpoint OD595 vs no drug) (fraction); higher = more growth
B. subtilis 168 = tested on: B. subtilis 168
Procedure, shortened: (§1)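 Fitness compares growth at the stationary-phase transition with the robust mean of no-drug control wells, as a ratio of optical densities. The ratio is capped at 1. Wells of 384-well plates held 30 µl, or 55 µl for S. pneumoniae, inoculated at OD595 0.01. Readings at OD595 every 30 min for 14 h at 37 °C were corrected against the first reading.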

S. aureus Newman = details: one replicate
Procedure, shortened: as §1

S. pneumoniae D39V = tested on: S. pneumoniae D39V
Procedure, shortened: as §1
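Further: OD595 on entry to stationary phase over no-drug wells; at most 1.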

O=C(O)[C@H]1/C(=C/CO)O[C@@H]2CC(=O)N21 [Clavulanic acid] + CN[C@@H]1[C@H](O[C@H]2[C@H](O[C@H]3[C@H](O)[C@@H](O)[C@H](N=C(N)N)[C@@H](O)[C@@H]3N=C(N)N)O[C@@H](C)[C@]2(O)C=O)O[C@@H](CO)[C@H](O)[C@H]1O [Streptomycin]
fitness
Details	partner 2 µg/mL	partner 4 µg/mL	partner 8 µg/mL
B. subtilis 168, first compound 1.5 µg/mL	0.963	–	0.0564
B. subtilis 168, first compound 3 µg/mL	0.93	–	0.0395
B. subtilis 168, first compound 6 µg/mL	0.804	–	0.0332
S. aureus Newman, first compound 0.03125 µg/mL	0.945	0.937	0.753
S. aureus Newman, first compound 0.0625 µg/mL	≥ 1	0.936	0.786
S. aureus Newman, first compound 0.125 µg/mL	0.991	0.938	0.786
S. pneumoniae D39V, first compound 0.5 µg/mL	0.955	0.929	0.901
S. pneumoniae D39V, first compound 1 µg/mL	0.899	0.886	0.855
S. pneumoniae D39V, first compound 2 µg/mL	0.757	0.78	0.768

S. pneumoniae D39V, partner 16 µg/mL, one replicate
Details	fitness
first compound 0.5 µg/mL	0.761
first compound 1 µg/mL	0.774
first compound 2 µg/mL	0.649

O=C(O)[C@H]1/C(=C/CO)O[C@@H]2CC(=O)N21 [Clavulanic acid] + CN[C@H](CC(C)C)C(=O)N[C@H]1C(=O)N[C@@H](CC(N)=O)C(=O)N[C@H]2C(=O)N[C@H]3C(=O)N[C@H](C(=O)N[C@H](C(=O)O)c4cc(O)cc(O)c4-c4cc3ccc4O)[C@H](O)c3ccc(c(Cl)c3)Oc3cc2cc(c3O[C@@H]2O[C@H](CO)[C@@H](O)[C@H](O)[C@H]2O[C@H]2C[C@](C)(N)[C@H](O)[C@H](C)O2)Oc2ccc(cc2Cl)[C@H]1O [Vancomycin]
fitness
Details	partner 0.03125 µg/mL	partner 0.0625 µg/mL	partner 0.125 µg/mL	partner 0.1875 µg/mL	partner 0.25 µg/mL	partner 0.375 µg/mL	partner 0.5 µg/mL	partner 0.75 µg/mL
S. aureus Newman, first compound 0.03125 µg/mL	–	–	–	0.974	–	0.975	–	0.974
S. aureus Newman, first compound 0.0625 µg/mL	–	–	–	≥ 1	–	≥ 1	–	≥ 1
S. aureus Newman, first compound 0.125 µg/mL	–	–	–	0.936	–	0.923	–	0.981
S. pneumoniae D39V, first compound 0.5 µg/mL	0.984	0.917	0.875	–	0.0377	–	0.0441	–
S. pneumoniae D39V, first compound 1 µg/mL	0.907	0.889	0.868	–	0.189	–	0.179	–
S. pneumoniae D39V, first compound 2 µg/mL	0.811	0.779	0.751	–	0.0611	–	0.078	–

O=C(O)[C@H]1/C(=C/CO)O[C@@H]2CC(=O)N21 [Clavulanic acid] + CO/N=C(\C(=O)N[C@@H]1C(=O)N2C(C(=O)O)=C(COC(C)=O)CS[C@H]12)c1csc(N)n1 [Cefotaxime]
fitness, B. subtilis 168, one replicate
Details	partner 0.00775 µg/mL	partner 0.0155 µg/mL	partner 0.031 µg/mL	partner 0.0625 µg/mL	partner 0.125 µg/mL	partner 0.25 µg/mL
first compound 1.5 µg/mL	0.759	0.65	0.525	0.486	0.286	0.225
first compound 3 µg/mL	0.722	0.593	0.489	0.455	0.322	0.15
first compound 6 µg/mL	0.637	0.467	0.384	0.391	0.258	0.185

Details	fitness
B. subtilis 168, first compound 1.5 µg/mL, partner 0.5 µg/mL	0.232
B. subtilis 168, first compound 1.5 µg/mL, partner 1 µg/mL	0.154
B. subtilis 168, first compound 1.5 µg/mL, partner 2 µg/mL	0.0721
B. subtilis 168, first compound 3 µg/mL, partner 0.5 µg/mL	0.218
B. subtilis 168, first compound 3 µg/mL, partner 1 µg/mL	0.118
B. subtilis 168, first compound 3 µg/mL, partner 2 µg/mL	0.0681
B. subtilis 168, first compound 6 µg/mL, partner 0.5 µg/mL	0.14
B. subtilis 168, first compound 6 µg/mL, partner 1 µg/mL	0.0836
B. subtilis 168, first compound 6 µg/mL, partner 2 µg/mL	0.0583
S. aureus Newman, first compound 0.03125 µg/mL, partner 0.078 µg/mL	0.994
S. aureus Newman, first compound 0.03125 µg/mL, partner 0.156 µg/mL	0.8
S. aureus Newman, first compound 0.03125 µg/mL, partner 0.312 µg/mL	0.807
S. aureus Newman, first compound 0.0625 µg/mL, partner 0.078 µg/mL	0.898
S. aureus Newman, first compound 0.0625 µg/mL, partner 0.156 µg/mL	0.741
S. aureus Newman, first compound 0.0625 µg/mL, partner 0.312 µg/mL	0.683
S. aureus Newman, first compound 0.125 µg/mL, partner 0.078 µg/mL	0.822
S. aureus Newman, first compound 0.125 µg/mL, partner 0.156 µg/mL	0.703
S. aureus Newman, first compound 0.125 µg/mL, partner 0.312 µg/mL	0.709
S. pneumoniae D39V, first compound 0.5 µg/mL, partner 0.0018 µg/mL	0.99
S. pneumoniae D39V, first compound 0.5 µg/mL, partner 0.0035 µg/mL	0.966
S. pneumoniae D39V, first compound 1 µg/mL, partner 0.0018 µg/mL	0.971
S. pneumoniae D39V, first compound 1 µg/mL, partner 0.0035 µg/mL	0.927
S. pneumoniae D39V, first compound 1 µg/mL, partner 0.007 µg/mL	0.789
S. pneumoniae D39V, first compound 2 µg/mL, partner 0.0018 µg/mL	0.844
S. pneumoniae D39V, first compound 2 µg/mL, partner 0.0035 µg/mL	0.824
S. pneumoniae D39V, first compound 2 µg/mL, partner 0.007 µg/mL	0.582

O=C(O)[C@H]1/C(=C/CO)O[C@@H]2CC(=O)N21 [Clavulanic acid] + CO/N=C(\C(=O)N[C@@H]1C(=O)N2C(C(=O)[O-])=C(C[N+]3(C)CCCC3)CS[C@H]12)c1csc(N)n1 [Cefepime]
fitness
Details	partner 0.007 µg/mL	partner 0.0078 µg/mL	partner 0.014 µg/mL	partner 0.0155 µg/mL	partner 0.028 µg/mL	partner 0.031 µg/mL	partner 0.125 µg/mL	partner 0.25 µg/mL	partner 0.5 µg/mL
S. aureus Newman, first compound 0.03125 µg/mL	–	–	–	–	–	–	0.965	0.943	0.946
S. aureus Newman, first compound 0.0625 µg/mL	–	–	–	–	–	–	0.94	0.914	0.871
S. aureus Newman, first compound 0.125 µg/mL	–	–	–	–	–	–	0.881	0.884	0.869
S. pneumoniae D39V, first compound 0.5 µg/mL	0.996	0.997	0.997	0.957	0.885	0.501	–	–	–
S. pneumoniae D39V, first compound 1 µg/mL	0.991	0.955	0.988	0.91	0.817	0.456	–	–	–
S. pneumoniae D39V, first compound 2 µg/mL	0.902	0.778	0.904	0.681	0.633	0.199	–	–	–

O=C(O)[C@H]1/C(=C/CO)O[C@@H]2CC(=O)N21 [Clavulanic acid] + CO[C@@]12[C@H](COC(N)=O)C3=C(C(=O)C(C)=C(N)C3=O)N1C[C@@H]1N[C@@H]12 [Mitomycin C]
fitness
Details	partner 0.001075 µg/mL	partner 0.00215 µg/mL	partner 0.004 µg/mL	partner 0.0043 µg/mL	partner 0.008 µg/mL	partner 0.0156 µg/mL	partner 0.0312 µg/mL	partner 0.0625 µg/mL
S. aureus Newman, first compound 0.03125 µg/mL	–	–	–	–	–	0.757	0.549	0.48
S. aureus Newman, first compound 0.0625 µg/mL	–	–	–	–	–	0.748	0.568	0.495
S. aureus Newman, first compound 0.125 µg/mL	–	–	–	–	–	0.721	0.601	0.51
S. pneumoniae D39V, first compound 0.5 µg/mL	0.951	0.885	0.642	0.772	0.324	–	–	–
S. pneumoniae D39V, first compound 1 µg/mL	0.896	0.873	0.586	0.766	0.369	–	–	–
S. pneumoniae D39V, first compound 2 µg/mL	0.838	0.791	0.385	0.696	0.201	–	–	–

O=C(O)[C@H]1/C(=C/CO)O[C@@H]2CC(=O)N21 [Clavulanic acid] + COc1c(N2C[C@@H]3CCCN[C@@H]3C2)c(F)cc2c(=O)c(C(=O)O)cn(C3CC3)c12 [Moxifloxacin]
Details	fitness
B. subtilis 168, first compound 1.5 µg/mL, partner 0.0312 µg/mL	0.0422
B. subtilis 168, first compound 1.5 µg/mL, partner 0.0625 µg/mL	0.0379
B. subtilis 168, first compound 1.5 µg/mL, partner 0.125 µg/mL	0.0596
B. subtilis 168, first compound 1.5 µg/mL, partner 2 µg/mL	0.0304
B. subtilis 168, first compound 1.5 µg/mL, partner 4 µg/mL	0.0307
B. subtilis 168, first compound 1.5 µg/mL, partner 8 µg/mL	0.0071
B. subtilis 168, first compound 3 µg/mL, partner 0.0312 µg/mL	0.0399
B. subtilis 168, first compound 3 µg/mL, partner 0.0625 µg/mL	0.0399
B. subtilis 168, first compound 3 µg/mL, partner 0.125 µg/mL	0.0536
B. subtilis 168, first compound 3 µg/mL, partner 2 µg/mL	0.0289
B. subtilis 168, first compound 3 µg/mL, partner 4 µg/mL	0.0394
B. subtilis 168, first compound 3 µg/mL, partner 8 µg/mL	0.0171
B. subtilis 168, first compound 6 µg/mL, partner 0.0312 µg/mL	0.0317
B. subtilis 168, first compound 6 µg/mL, partner 0.0625 µg/mL	0.0196
B. subtilis 168, first compound 6 µg/mL, partner 0.125 µg/mL	0.0562
B. subtilis 168, first compound 6 µg/mL, partner 2 µg/mL	0.0285
B. subtilis 168, first compound 6 µg/mL, partner 4 µg/mL	0.0252
B. subtilis 168, first compound 6 µg/mL, partner 8 µg/mL	0.0156
S. aureus Newman, first compound 0.03125 µg/mL, partner 0.0075 µg/mL	0.823
S. aureus Newman, first compound 0.03125 µg/mL, partner 0.015 µg/mL	0.742
S. aureus Newman, first compound 0.03125 µg/mL, partner 0.03 µg/mL	0.393
S. aureus Newman, first compound 0.0625 µg/mL, partner 0.0075 µg/mL	0.786
S. aureus Newman, first compound 0.0625 µg/mL, partner 0.015 µg/mL	0.693
S. aureus Newman, first compound 0.0625 µg/mL, partner 0.03 µg/mL	0.312
S. aureus Newman, first compound 0.125 µg/mL, partner 0.0075 µg/mL	0.779
S. aureus Newman, first compound 0.125 µg/mL, partner 0.015 µg/mL	0.699
S. aureus Newman, first compound 0.125 µg/mL, partner 0.03 µg/mL	0.417
S. pneumoniae D39V, first compound 0.5 µg/mL, partner 0.005 µg/mL	0.952
S. pneumoniae D39V, first compound 0.5 µg/mL, partner 0.01 µg/mL	0.982
S. pneumoniae D39V, first compound 0.5 µg/mL, partner 0.02 µg/mL	0.896
S. pneumoniae D39V, first compound 0.5 µg/mL, partner 0.0312 µg/mL	0.0616
S. pneumoniae D39V, first compound 0.5 µg/mL, partner 0.0625 µg/mL	0.0525
S. pneumoniae D39V, first compound 0.5 µg/mL, partner 0.125 µg/mL	0.0269
S. pneumoniae D39V, first compound 1 µg/mL, partner 0.005 µg/mL	0.94
S. pneumoniae D39V, first compound 1 µg/mL, partner 0.01 µg/mL	0.964
S. pneumoniae D39V, first compound 1 µg/mL, partner 0.02 µg/mL	0.908
S. pneumoniae D39V, first compound 1 µg/mL, partner 0.0312 µg/mL	0.198
S. pneumoniae D39V, first compound 1 µg/mL, partner 0.0625 µg/mL	0.173
S. pneumoniae D39V, first compound 1 µg/mL, partner 0.125 µg/mL	0.189
S. pneumoniae D39V, first compound 2 µg/mL, partner 0.005 µg/mL	0.891
S. pneumoniae D39V, first compound 2 µg/mL, partner 0.01 µg/mL	0.939
S. pneumoniae D39V, first compound 2 µg/mL, partner 0.02 µg/mL	0.844
S. pneumoniae D39V, first compound 2 µg/mL, partner 0.0312 µg/mL	0.0371
S. pneumoniae D39V, first compound 2 µg/mL, partner 0.0625 µg/mL	0.0368
S. pneumoniae D39V, first compound 2 µg/mL, partner 0.125 µg/mL	0.0371
